Test results taken from paper PMC8845381 (BMC Microbiology, 2022).
Converted amounts (≈) assume the structure as drawn. “And” between values parts separate entries of the source, which are not always exact repeats. Identical values can stand only once. Like-named read-outs stand apart in the source and are kept apart here. Marks after values point to notes of the source that are not given here.

How the values were obtained:
[1] = test system: L. amazonensis promastigotes; parameters: method as in PMID 26517558; conditions: in vitro; cited from earlier work
L. major promastigotes [2] = assay: In vitro assay: live and dead promastigotes counted after eosin staining; type: cell-based, Leishmania major (Iranian strain MRHO/IR/75/ER); conditions: for effectiveness (mortality rate of promastigotes) compared with Amphotericin B: P < 0.05
Protocol: L. major promastigotes, Iranian strain MRHO/IR/75/ER, were provided by the department of parasitology, Tehran University of Medical Sciences, Tehran, Iran and were cultivated in RPMI-1640 medium supplemented with 10% FBS and penicillin–streptomycin solution at 24 °C with frequent passages every three days.
The experiments were done separately for 12, 24, 48, and 72 h in a 96-well microtiter plate. At first, 100 μL RPMI-1640 medium containing 10^5 promastigotes (at log phase) was added to each well. […] Amphotericin B (20 mg/mL) as a positive control was considered in three wells, in a concentration of 12 μM. In another row, 100 µL of medium containing parasites with phosphate buffered saline (PBS) without the drug was added as the negative controls. The plate was incubated at 24 °C for 12, 24, 48, and 72 h.

[3] = test system: L. major amastigotes in J774.A1 macrophages; assay: Parasite load in macrophage (anti-amastigote activity); type: cell-based, Leishmania major; conditions: for Number of amastigotes: mean per macrophage
Protocol: For the assessment of the parasite load, 2 × 10^5 of J774.A1 macrophages cells were cultured in a 24-well microtiter plate containing a 13 mm-diameter coverslip per well, and supplemented RPMI medium supplemented with 10% FCS and 100 U/ml penicillin and 100 μg/mL streptomycin and incubated at 37 °C in CO2 5% for 24 h. Promastigotes of L. major at the stationary phase were seeded into each well (1:10) and incubated for 24 h and the non-internalized parasites were removed by aspirating the supernatant. […] The number of infected macrophages and the number of amastigotes per macrophage were determined by counting the number of parasites in 100 macrophages in a neubauer chamber.

Leishmania major = assay: In vivo assay: lesion size in infected BALB/c mice, topical treatment; conditions: after 28 days
Protocol: This study was performed in accordance with ARRIVE guidelines (https://arriveguidelines.org). Female BALB/c mice (6–7 weeks old) purchased from Razi Rad Industries were used for experimentation and kept in standard boxes under controlled light and temperature conditions. Overall, 1.6 × 10^6 promastigotes, in the stationary phase, were injected subcutaneously in the base of the tail of mice. The mice were divided into 10 groups and five mice were allocated in each group. […] After three weeks, treatment was started when local lesions were apparent. […] Topical treatment was used on each mouse every 28 continuous days. The diameter of lesions was measured weekly before and after treatment by dial micrometer (Starrett Dial indicator, model 25A, USA) and compared with that of untreated lesions. The ulcer size was determined according to the following formula (a: Length and b: width): Lesionsize=a+b/2

[4] = test system: nitric oxide (NO) production by infected murine peritoneal macrophages; assay: Indirect measurement of nitric oxide production (Griess reaction); type: cell-based
Protocol: NO levels were evaluated using Griess reaction and compared to the untreated macrophages. In a 96-well microtiter plate, 2 × 10^5 murine peritoneal macrophages were cultured at 37 °C in 5% CO2 for 4 h to allow cell adhesion. 100 µL of new medium containing promastigotes in stationary phase (10 promastigotes per macrophage) was added. […] After the incubation times, the level of NO was analyzed using cell culture supernatant by an ELISA plate reader at 550 nm.

human blood = type: cell-based; conditions: 30 min at 37 °C
Protocol: In vitro hemolytic activity was done by spectrophotometric method. In this study, the fresh human blood samples obtained from returned unused blood bags in the blood bank (Iranian Blood Transfusion Organization) were used. […] The mixture was incubated for 30 min at 37 °C and then centrifuged at 1500 rpm for 10 min. The free hemoglobin in the supernatant was analyzed by UV–Vis spectrophotometer at 540 nm. The PBS and distilled water (DW) were used as minimal and maximal hemolytic controls.

L. major promastigotes [5] = assay: Apoptosis assay (Annexin V-FITC/PI flow cytometry); type: cell-based; conditions: Leishmania major, 24 h, read-out: viability rates of cells (flow cytometry)
Protocol: They were incubated at 24 °C for 24 h. Then cells were washed twice with PBS and 1 × 10^5 cells were re-suspended in 100 μL binding buffer and incubated with 5 μL of Annexin V-FITC and propidium iodide (PI) as a counterstain for 15 min at room temperature in darkness, according to the manufacturer's instructions (BD Biosciences, San Diego, CA, USA). Finally, the percent of apoptotic and necrotic cells was evaluated by flow cytometry (Becton Dickinson) and data were analyzed using Flowjo software (version 7).

L929 cell line = assay: Cytotoxicity assay (MTT); type: cell-based; conditions: for Cytotoxicity assay Percent (%): L929, 24 h
Protocol: L929 cell line was seeded into 96-well microtiter plates (Nunc, Roskilde, Denmark) in DMEM (100 μL) supplemented with 10% FBS and 1% penicillin–streptomycin solution. Cells then were incubated at 37 °C in a humidity of 95% and 5% CO2 for 24 h. […] After 24 h of incubation time, 10 μL of MTT solution was added to each well. After 3 h of incubation at 37 °C, the supernatant was removed and 100 μL of DMSO was added. Finally, the absorbance at 570 nm was measured by a microtiter plate reader (BioTek ELX800, Winooski, VT, USA) and the viability was calculated by the below formula [21]: Viability%=ODTest/ODControl×100

[6] = Characterization by dynamic light scattering (size, PDI, zeta potential); type: physicochemical; conditions: DLS
Protocol: The homogenization followed by the probe ultra-sonication method was performed for preparing the nanoparticles. […] Then, the hot lipid phase was dispersed in the 1/3 aqueous solution containing 500 mg of hydrophilic surfactant (Tween 80), heated at the same temperature, homogenized by high-shear homogenizer at 13,000 rpm for 7 min (D-91126 Schwabach, Heidolph, Germany), and then sonicated by a probe sonicator (Bandelinsonopuls, 3100, Berlin, Germany) at power levels of 3.5 W for 5 min to form a coarse pre-emulsion. The mixture was then dispersed into 2/3 of an ice-cold surfactant solution preserved in an ice bath. The final mixture was sonicated again at power levels of 0.6 W for 10 min while dipped in the ice bath. This cooling phase encouraged the formation of lipid nanoparticles.

L. amazonensis = conditions: in vitro; cited from earlier work
L. major = conditions: in vitro; cited from earlier work
Candida albicans = conditions: cited from earlier work
[7] = test system: L. major intracellular amastigotes; conditions: 10, 50, and 100 µg/mL; cited from earlier work
[8] = 50 µg/mL, 0 h (Before treatment)
[9] = 100 µg/mL, 0 h (Before treatment)
[10] = 200 µg/mL, 0 h (Before treatment)
[11] = 400 µg/mL, 0 h (Before treatment)
[12] = 20 µg/mL, 0 h (Before treatment)

SMILES: Oc1cc(O)cc(/C=C/c2ccc(O)cc2O)c1 [oxyresveratrol]
- IC50 [1]: 65 µg/mL (≈ 266 µM)

SMILES: Oc1ccc(/C=C/c2cc(O)cc(O)c2)cc1 [Resveratrol, 3,5,4' -trihydroxy-trans-stilbene]
- promastigotes eliminated (L. major promastigotes [2]; 100 µg/mL, 48 h, 'In this study' (sentence follows description of ref 17)): 100%
- IC50 (L. major promastigotes [2]; Leishmania major, promastigotes of L. major after 12 h): 16.2 µg/mL (≈ 71.1 µM)
- effectiveness (mortality rate of promastigotes) compared with Amphotericin B (L. major promastigotes [2]; after 12 h, 50, 100, 200, and 400 µg/mL): significantly more effective than Amphotericin B
- effectiveness (mortality rate of promastigotes) compared with Amphotericin B (L. major promastigotes [2]; after 24 h, all concentrations): significantly more effective than Amphotericin B
- anti-leishmanial activity compared with positive control (Amphotericin B) (L. major promastigotes [2]; after 48 h, resveratrol 50-400 µg/mL, RNE 100-400 µg/mL, not significant (P > 0.05)): better anti-leishmanial activity than positive control
- MQ infectivity (%) [3, 8]: 76.4%
- Number of amastigotes [3, 8]: 17.6
- MQ infectivity (%) ([3]; 50 µg/mL, 24 h): 68.4^* %
- Number of amastigotes ([3]; 50 µg/mL, 24 h): 12.5
- MQ infectivity (%) ([3]; 50 µg/mL, 48 h): 55.3%
- Number of amastigotes ([3]; 50 µg/mL, 48 h): 9.8^*
- MQ infectivity (%) [3, 9]: 81.0%
- Number of amastigotes [3, 9]: 18.3
- MQ infectivity (%) ([3]; 100 µg/mL, 24 h): 56.2^* %
- Number of amastigotes ([3]; 100 µg/mL, 24 h): 12.1
- MQ infectivity (%) ([3]; 100 µg/mL, 48 h): 41.9^* %
- Number of amastigotes ([3]; 100 µg/mL, 48 h): 9.5^*
- MQ infectivity (%) [3, 10]: 78.3%
- Number of amastigotes [3, 10]: 18.0
- MQ infectivity (%) ([3]; 200 µg/mL, 24 h): 42.6^* %
- Number of amastigotes ([3]; 200 µg/mL, 24 h): 6.7^*
- MQ infectivity (%) ([3]; 200 µg/mL, 48 h): 35.5^* %
- Number of amastigotes ([3]; 200 µg/mL, 48 h): 2.4^*
- MQ infectivity (%) [3, 11]: 79.6%
- Number of amastigotes [3, 11]: 16.2
- MQ infectivity (%) ([3]; 400 µg/mL, 24 h): 31.4^* %
- Number of amastigotes ([3]; 400 µg/mL, 24 h): 3.3^*
- MQ infectivity (%) ([3]; 400 µg/mL, 48 h): 25.8^* %
- Number of amastigotes ([3]; 400 µg/mL, 48 h): 0.5^**
- mean lesion size (Leishmania major; 15 mg/kg BW, topical, PBS control 7.5 and 7.2 mm): 0.0 mm
- anti-leishmanial activity (lesion size) compared with Amphotericin B (Leishmania major; all concentrations, not significant (P > 0.05)): better anti-leishmanial activity
- NO production by macrophages compared with Amphotericin B ([4]; resveratrol 50 and 100 µg/mL, RNE 50, 100, 200, and 400 µg/mL, P < 0.05): decreased the NO production even more than Amphotericin B
- production of NO compared with the control group ([4]; resveratrol ≥ 200 µg/mL, 24 h, control PBS 7.23 μM, DMSO 6.73 μM): decreased the production of NO
- Hemolytic assay Percent (%) (human blood; 100 µg/mL): 17.5 ± 2.4%
- Hemolytic assay Percent (%) (human blood; 200 µg/mL): 19.6 ± 3.7%
- Hemolytic assay Percent (%) (human blood; 400 µg/mL (highest concentration)): 25.2 ± 5.3%
- viability at 200 µg/mL (L. major promastigotes [5]; 200 µg/mL): 87.9%
- viability at 400 µg/mL (L. major promastigotes [5]; 400 µg/mL): 71.4%
- cytotoxicity against the L929 cell line (in words) (L929 cell line): no cytotoxicity
- Cytotoxicity assay Percent (%) (L929 cell line; 100 µg/mL): 8.4 ± 1.6%
- Cytotoxicity assay Percent (%) (L929 cell line; 200 µg/mL): 14.8 ± 3.0%
- Cytotoxicity assay Percent (%) (L929 cell line; 400 µg/mL): 18.7 ± 4.6%
- average size [6]: 432.7 ± 26 nm
- IC50 (L. amazonensis): 27 µM
- IC50 (L. major): 65.5 µM
- IC50 (Candida albicans): 10 to 20 µg/mL
- effect on intracellular amastigote [7]: resistant

SMILES: C[C@@H]1[C@H](O)[C@@H](C)/C=C/C=C/C=C/C=C/C=C/C=C/C=C/[C@H](O[C@@H]2O[C@H](C)[C@@H](O)[C@H](N)[C@@H]2O)C[C@@H]2O[C@](O)(C[C@@H](O)C[C@@H](O)[C@H](O)CC[C@@H](O)C[C@@H](O)CC(=O)O[C@H]1C)C[C@H](O)[C@H]2C(=O)O [Amphotericin B, reference compound]
- MQ infectivity (%) [3, 12]: 73.4%
- Number of amastigotes [3, 12]: 15.7
- MQ infectivity (%) ([3]; 20 µg/mL, 24 h): 34.5^* %
- Number of amastigotes ([3]; 20 µg/mL, 24 h): 4.3^*
- MQ infectivity (%) ([3]; 20 µg/mL, 48 h): 42.7^* %
- Number of amastigotes ([3]; 20 µg/mL, 48 h): 0.4^**
- Hemolytic assay Percent (%) (human blood; concentration not given): 21.6% and 21.6 ± 5.3%
- Cytotoxicity assay Percent (%) (L929 cell line; concentration not given): 19.5 ± 0.6%
